Results as given in ChEMBL document CHEMBL4477257, “In vitro cytotoxicity of novel 2,5,7-tricarbo-substituted indoles derived from 2-amino-5-bromo-3-iodoacetophenone” (2016).
Active and inactive are the calls of the source. The calls are words filed in the database; no cut-off is given here.

Legend:
MCF7 [1] = test: Cytotoxicity against human MCF7 cells assessed as cell viability at 100 uM after 2 days by MTT assay relative to control; assay type: functional; conditions: MCF7, 48 h, read-out: Activity
HeLa [2] = test: Cytotoxicity against human HeLa cells assessed as cell viability at 10 uM after 2 days by MTT assay relative to control; assay type: functional; conditions: 48 h, read-out: Activity
MCF7 [3] = test: Cytotoxicity against human MCF7 cells assessed as cell viability at 0.1 uM after 2 days by MTT assay relative to control; assay type: functional; conditions: MCF7, 48 h, read-out: Activity
MCF7 [4] = test: Cytotoxicity against human MCF7 cells assessed as reduction in cell viability after 2 days by MTT assay; assay type: functional; conditions: MCF7, 48 h, read-out: LC50 (the source's name)
HeLa [5] = test: Cytotoxicity against human HeLa cells assessed as reduction in cell viability after 2 days by MTT assay; assay type: functional; conditions: 48 h, read-out: LC50 (the source's name)
HeLa [6] = test: Cytotoxicity against human HeLa cells assessed as cell viability at 1 uM after 2 days by MTT assay relative to control; assay type: functional; conditions: 48 h, read-out: Activity
MCF7 [7] = test: Cytotoxicity against human MCF7 cells assessed as cell viability at 10 uM after 2 days by MTT assay relative to control; assay type: functional; conditions: MCF7, 48 h, read-out: Activity
HeLa [8] = test: Cytotoxicity against human HeLa cells assessed as cell viability at 100 uM after 2 days by MTT assay relative to control; assay type: functional; conditions: 48 h, read-out: Activity
MCF7 [9] = test: Cytotoxicity against human MCF7 cells assessed as cell viability at 1 uM after 2 days by MTT assay relative to control; assay type: functional; conditions: MCF7, 48 h, read-out: Activity
HeLa [10] = test: Cytotoxicity against human HeLa cells assessed as cell viability at 0.1 uM after 2 days by MTT assay relative to control; assay type: functional; conditions: 48 h, read-out: Activity
HeLa [11] = test: Induction of apoptosis in human HeLa cells assessed as necrotic cells at 10 uM after 48 hrs by Annexin V/propidium iodide staining based flow cytometric analysis (reference value: 21.45 +/- 0.78 %); assay type: functional
HeLa [12] = test: Induction of apoptosis in human HeLa cells after 48 hrs by Annexin V/propidium iodide staining based flow cytometric analysis; assay type: functional, cell-based
HeLa [13] = test: Induction of apoptosis in human HeLa cells assessed as necrotic cells at 2.5 uM after 48 hrs by Annexin V/propidium iodide staining based flow cytometric analysis (reference value: 21.45 +/- 0.78 %); assay type: functional
HeLa [14] = test: Induction of apoptosis in human HeLa cells assessed as late apoptotic cells at 2.5 uM after 48 hrs by Annexin V/propidium iodide staining based flow cytometric analysis (reference value: 31.80 +/- 0.25 %); assay type: functional
HeLa [15] = test: Induction of apoptosis in human HeLa cells assessed as DNA fragmentation at 2.5 to 10 uM after 48 hrs by ethidium bromide staining based agarose gel electrophoresis; assay type: functional, cell-based
HeLa [16] = test: Induction of apoptosis in human HeLa cells assessed as viable cells at 5 uM after 48 hrs by Annexin V/propidium iodide staining based flow cytometric analysis (reference value: 46.00 +/- 0.56 %); assay type: functional; conditions: read-out: Activity
HeLa [17] = test: Induction of apoptosis in human HeLa cells assessed as early apoptotic cells at 2.5 uM after 48 hrs by Annexin V/propidium iodide staining based flow cytometric analysis (reference value: 0.05 +/- 0.07 %); assay type: functional
HeLa [18] = test: Induction of apoptosis in human HeLa cells assessed as late apoptotic cells at 10 uM after 48 hrs by Annexin V/propidium iodide staining based flow cytometric analysis (reference value: 31.80 +/- 0.25 %); assay type: functional
HeLa [19] = test: Induction of apoptosis in human HeLa cells assessed as early apoptotic cells at 10 uM after 48 hrs by Annexin V/propidium iodide staining based flow cytometric analysis (reference value: 0.05 +/- 0.07 %); assay type: functional
HeLa [20] = test: Induction of apoptosis in human HeLa cells assessed as early apoptotic cells at 5 uM after 48 hrs by Annexin V/propidium iodide staining based flow cytometric analysis (reference value: 0.05 +/- 0.07 %); assay type: functional
HeLa [21] = test: Induction of apoptosis in human HeLa cells assessed as viable cells at 10 uM after 48 hrs by Annexin V/propidium iodide staining based flow cytometric analysis (reference value: 46.00 +/- 0.56 %); assay type: functional; conditions: read-out: Activity
HeLa [22] = test: Induction of apoptosis in human HeLa cells assessed as late apoptotic cells at 5 uM after 48 hrs by Annexin V/propidium iodide staining based flow cytometric analysis (reference value: 31.80 +/- 0.25 %); assay type: functional
HeLa [23] = test: Induction of apoptosis in human HeLa cells assessed as viable cells at 2.5 uM after 48 hrs by Annexin V/propidium iodide staining based flow cytometric analysis (reference value: 46.00 +/- 0.56 %); assay type: functional; conditions: read-out: Activity
HeLa [24] = test: Induction of apoptosis in human HeLa cells assessed as caspase 3 activation at 2.5 to 10 uM after 24 hrs by colorimetric analysis; assay type: functional
HeLa [25] = test: Induction of apoptosis in human HeLa cells assessed as necrotic cells at 5 uM after 48 hrs by Annexin V/propidium iodide staining based flow cytometric analysis (reference value: 21.45 +/- 0.78 %); assay type: functional

SMILES	viability at 100 µM (MCF7 [1]) [%]	viability at 10 µM (HeLa [2]) [%]	viability at 0.1 µM (MCF7 [3]) [%]	CC50 (MCF7 [4]) [µM]	CC50 (HeLa [5]) [µM]	viability at 1 µM (HeLa [6]) [%]	viability at 10 µM (MCF7 [7]) [%]	viability at 100 µM (HeLa [8]) [%]	viability at 1 µM (MCF7 [9]) [%]	viability at 0.1 µM (HeLa [10]) [%]	other results
CC(=O)c1cc(-c2ccccc2)cc2cc(-c3ccccc3)[nH]c12	65.8	60.9	99.3	> 100	> 100	65.8	96.2	51.4	98.6	72.3	
CC(=O)c1cc(/C=C/c2ccccc2)cc2cc(-c3ccccc3)[nH]c12	34.1	52.5	99.5	> 100	30.8	79.8	86.5	21.2	93.4	99	
CC(=O)c1cc(-c2ccccc2)cc2cc(-c3ccc(F)cc3)[nH]c12	73.3	76.9	98.5	> 100	> 100	85.1	91.9	68.3	96.8	91.1	
COc1ccc(-c2cc(C(C)=O)c3[nH]c(-c4ccccc4)cc3c2)cc1	30.8	33.9	99.2	47.8	15.5	73.1	49.5	21.1	88.8	87.9	
COc1ccc(-c2cc(C(C)=O)c3[nH]c(-c4ccc(OC)cc4)cc3c2)cc1	39.9	37.1	96.5	25.2	7.13	60.2	56.4	20.2	62.6	74.5	Activity (HeLa [11]): 47.4%; Activity (HeLa [12]): Dose-dependent effect; Activity (HeLa [13]): 23.2%; Activity (HeLa [14]): 12.9%; Activity (HeLa [15]): Active; viability at 5 µM (HeLa [16]): 20.4%; Activity (HeLa [17]): 0.1%; Activity (HeLa [18]): 47.75%; Activity (HeLa [19]): 0.15%; Activity (HeLa [20]): 0.15%; viability at 10 µM (HeLa [21]): 3.7%; Activity (HeLa [22]): 37.55%; viability at 2.5 µM (HeLa [23]): 65.2%; fold change (FC) (HeLa [24]): 4; Activity (HeLa [25]): 42.65%
CC(=O)c1cc(/C=C/c2ccc(F)cc2)cc2cc(-c3ccc(F)cc3)[nH]c12	42.2	41.9	98.8	> 100	5.68	53.7	67.4	20.3	82	72.6	Activity (HeLa [11]): 64.1%; Activity (HeLa [13]): 14.35%; Activity (HeLa [14]): 33.5%; Activity (HeLa [15]): Active; viability at 5 µM (HeLa [16]): 35.5%; Activity (HeLa [17]): 0.2%; Activity (HeLa [18]): 13.4%; Activity (HeLa [19]): 0.35%; Activity (HeLa [20]): 0.5%; viability at 10 µM (HeLa [21]): 22.4%; Activity (HeLa [22]): 44%; viability at 2.5 µM (HeLa [23]): 52.4%; fold change (FC) (HeLa [24]): 3; Activity (HeLa [25]): 20.4%
COc1ccc(-c2cc(C(C)=O)c3[nH]c(-c4ccc(F)cc4)cc3c2)cc1	14.8	46.5	88.4	16.8	9.46	56.1	52.9	20.6	69.7	74.5	
CC(=O)c1cc(-c2ccc(F)cc2)cc2cc(-c3ccccc3)[nH]c12	36.4	55.7	98.3	> 100	38	82.7	73.8	24.8	82.7	90.3	
COc1ccc(-c2cc3cc(-c4ccc(F)cc4)cc(C(C)=O)c3[nH]2)cc1	47	52	97.3	> 100	42.8	62.9	77.5	46.5	96.4	81	
COc1ccc(-c2cc3cc(-c4ccccc4)cc(C(C)=O)c3[nH]2)cc1	43.5	51.6	87	> 100	18.9	61.5	64.5	32.8	78.1	80.5	
CC(=O)c1cc(/C=C/c2ccc(F)cc2)cc2cc(-c3ccccc3)[nH]c12	46.7	32.8	89.7	18.5	9.26	70	46.5	23.9	72.2	74.2	
COc1ccc(-c2cc3cc(/C=C/c4ccc(F)cc4)cc(C(C)=O)c3[nH]2)cc1	47.6	25.8	97.2	83	8.77	67	76.5	18.9	97.3	90.5	
CC(=O)c1cc(-c2ccc(F)cc2)cc2cc(-c3ccc(F)cc3)[nH]c12	20	47.4	99.8	87.4	13.8	71.6	90.6	9.31	93.2	90	
CC(=O)c1cc(/C=C/c2ccccc2)cc2cc(-c3ccc(F)cc3)[nH]c12	50.1	51.9	98.4	> 100	16.1	60.5	69.5	24.2	86.9	82.2	
